Laboratory results published in patent US8394969B2, “Cyclic benzimidazole derivatives useful as anti-diabetic agents” (Merck Sharp & Dohme Corp., priority 2008, dated 2013).
Where two headings read alike, the source gives them in different places.

Target: recombinant human AMPK complex 1 (containing α1β1γ1) (Homo sapiens, UniProt Q13131+Q9Y478)
Test: […] (in vitro AMPK activation assay)
Assay type: biochemical
Settings: for Emax: basal activity subtracted
[1] = recombinant human AMPK complex 1 (α1β1γ1), read-out: % Maximum AMP Activation of human AMPK Complex 1

Chain of recombinant human AMPK complex 1 (containing α1β1γ1) (Q13131 whole entry): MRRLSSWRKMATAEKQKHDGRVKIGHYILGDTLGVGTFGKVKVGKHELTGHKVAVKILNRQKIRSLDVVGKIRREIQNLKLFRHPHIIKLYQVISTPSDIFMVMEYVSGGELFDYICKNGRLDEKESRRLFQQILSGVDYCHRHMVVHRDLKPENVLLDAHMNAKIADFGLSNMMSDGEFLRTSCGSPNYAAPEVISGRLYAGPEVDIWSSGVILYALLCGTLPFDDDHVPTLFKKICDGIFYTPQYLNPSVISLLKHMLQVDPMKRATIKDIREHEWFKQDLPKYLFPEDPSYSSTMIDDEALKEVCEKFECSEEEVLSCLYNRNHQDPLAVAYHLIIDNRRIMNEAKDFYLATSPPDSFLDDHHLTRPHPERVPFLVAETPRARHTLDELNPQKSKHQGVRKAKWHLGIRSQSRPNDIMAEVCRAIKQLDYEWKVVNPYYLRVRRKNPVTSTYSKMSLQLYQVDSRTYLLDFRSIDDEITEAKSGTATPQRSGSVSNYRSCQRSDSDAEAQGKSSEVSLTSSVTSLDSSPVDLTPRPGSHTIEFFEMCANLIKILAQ
Chain of recombinant human AMPK complex 1 (containing α1β1γ1) (Q9Y478 whole entry): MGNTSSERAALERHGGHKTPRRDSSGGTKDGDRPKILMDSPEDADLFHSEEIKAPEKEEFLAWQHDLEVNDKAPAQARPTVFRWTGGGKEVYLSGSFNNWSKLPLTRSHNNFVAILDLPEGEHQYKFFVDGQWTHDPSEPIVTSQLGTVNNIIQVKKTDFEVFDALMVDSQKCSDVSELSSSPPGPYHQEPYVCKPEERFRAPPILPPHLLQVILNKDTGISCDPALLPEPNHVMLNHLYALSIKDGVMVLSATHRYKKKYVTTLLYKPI
Chain of recombinant human AMPK complex 1 (containing α1β1γ1) (P54619 whole entry partner): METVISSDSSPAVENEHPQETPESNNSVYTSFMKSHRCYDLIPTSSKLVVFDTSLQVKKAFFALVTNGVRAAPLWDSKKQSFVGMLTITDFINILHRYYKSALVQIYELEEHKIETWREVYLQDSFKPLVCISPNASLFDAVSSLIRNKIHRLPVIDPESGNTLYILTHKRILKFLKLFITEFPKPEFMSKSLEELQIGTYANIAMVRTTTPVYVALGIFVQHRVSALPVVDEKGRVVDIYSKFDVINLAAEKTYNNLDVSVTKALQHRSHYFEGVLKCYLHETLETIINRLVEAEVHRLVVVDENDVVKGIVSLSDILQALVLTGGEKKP

Compound Cc1ccc(Oc2nc3cc(-c4cccc5c4ccn5C)c(Cl)cc3[nH]2)cc1C(=O)O [Example 283, 5-[6-Chloro-5-(1-methyl-1H-indol-4-yl)-1H-benzoimidazol-2-yloxy]-2-methyl-benzoic acid] has an Emax [1] greater than 80%.
O=C(O)c1cc(O)cc(Oc2nc3cc(-c4ccc(-c5ccccc5)cc4)c(Cl)cc3[nH]2)c1 [Example 35, 3-(5-Biphenyl-4-yl-6-chloro-1H-benzoimidazol-2-yloxy)-5-hydroxy-benzoic acid] showed an Emax [1] greater than 80%.
O=C(O)CCc1ccc(Oc2nc3cc(-c4ccc(-c5ccccc5)cc4)c(Cl)cc3[nH]2)cc1 [Example 25, 3-[4-(5-Biphenyl-4-yl-6-chloro-1H-benzoimidazol-2-yloxy)-phenyl]-propionic acid] showed an Emax [1] greater than 80%.
Cc1ccc(Oc2nc3cc(-c4ccc(-c5ccccc5O)cc4)c(F)cc3[nH]2)cc1C(=O)O [Example 232, 5-{[6-fluoro-5-(2′-hydroxybiphenyl-4-yl)-1H-benzimidazol-2-yl]oxy}-2-methylbenzoic acid] gave an EC50 (recombinant human AMPK complex 1 (α1β1γ1), read-out: EC50) of 1 nM.
COc1ccc(-c2ccc(-c3cc4nc(Oc5ccc(C)c(C(=O)O)c5)[nH]c4cc3Cl)cc2)cn1 [Example 201, 5-({6-chloro-5-[4-(6-methoxypyridin-3-yl)phenyl]-1H-benzimidazol-2-yl}oxy)-2-methylbenzoic acid] was tested, and the Emax [1] was greater than 80%.
Work on Cc1ccc(Oc2nc3cc(C#CC(C)(C)O)c(Cl)cc3[nH]2)cc1C(=O)O [Example 154, 5-[6-Chloro-5-(3-hydroxy-3-methyl-but-1-ynyl)-1H-benzoimidazol-2-yloxy]-2-methyl-benzoic acid] yielded an Emax [1] greater than 80%.
With COc1ccc2cc(-c3cc4nc(Oc5ccc(CC(=O)O)cc5)[nH]c4cc3Cl)ccc2c1 [Example 245, {4-[6-Chloro-5-(6-methoxy-naphthalen-2-yl)-1H-benzoimidazol-2-yloxy]-phenyl}-acetic acid] the Emax [1] was greater than 80%.
NC(=O)Cc1cccc(Oc2nc3cc(C#Cc4ccccc4)c(Cl)cc3[nH]2)c1 [Example 23, 2-[3-(6-Chloro-5-phenylethynyl-1H-benzoimidazol-2-yloxy)-phenyl]-acetamide] showed an Emax [1] greater than 80%.
For Cc1cc(-c2cc3nc(Oc4ccc(C)c(C(=O)O)c4)[nH]c3cc2Cl)ccc1F [Example 328, Ammonium 5-{[6-chloro-5-(4-fluoro-3-methylphenyl-1H-benzimidazol-2-yl]oxy}-2-methylbenzoate], the Emax (read-out: % Maximum AMP Activation of human AMPK Complex 1, recombinant human AMPK complex 1 (α1β1γ1)) was greater than 80%.
With COC(=O)c1cc(Oc2nc3cc(C#Cc4ccc(OC(C)=O)cc4)c(Cl)cc3[nH]2)ccc1C [Example 117, 5-[5-(4-Acetoxy-phenylethynyl)-6-chloro-1H-benzoimidazol-2-yloxy]-2-methyl-benzoic acid methyl ester] the Emax [1] was greater than 80%.
COC(=O)Cn1c(Oc2ccc(C)c(C(=O)OC)c2)nc2cc(-c3ccc(-c4ccccc4)cc3)c(Cl)cc21 [Example 223, 5-(5-Biphenyl-4-yl-6-chloro-1-methoxycarbonyl-methyl-1H-benzoimidazol-2-yloxy)-2-methyl-benzoic acid methyl ester] gave an Emax [1] greater than 80%.
Compound Cc1ccc(Oc2nc3cc(-c4cc5ccccc5s4)c(Cl)cc3[nH]2)cc1C(=O)O [Example 355, 5-(5-Benzo[b]thiophen-2-yl-6-chloro-1H-benzoimidazol-2-yloxy)-2-methyl-benzoic acid] has an Emax [1] greater than 80%.
Work on O=C(O)c1ccc(F)c(Oc2nc3cc(-c4ccc(-c5ccccc5)cc4)c(Cl)cc3[nH]2)c1 [Example 209, 3-(5-Biphenyl-4-yl-6-chloro-1H-benzoimidazol-2-yloxy)-4-fluoro-benzoic acid] yielded an Emax [1] greater than 80%.
For O=C1Cc2cc(Oc3nc4cc(-c5ccc(-c6ccccc6)cc5)c(Cl)cc4[nH]3)ccc2O1 [Example 16, 5-(5-Biphenyl-4-yl-6-chloro-1H-benzoimidazol-2-yloxy)-3H-benzofuran-2-one], the Emax [1] was greater than 80%.
Cc1cc(C)c(C(=O)O)cc1Oc1nc2cc(-c3ccc(-c4ccccc4)cc3)c(Cl)cc2[nH]1 [Example 208, 5-(5-Biphenyl-4-yl-6-chloro-1H-benzoimidazol-2-yloxy)-2,4-dimethyl-benzoic acid] showed an Emax [1] greater than 80%.
